Measurements from ChEMBL document CHEMBL1201862, “PubChem BioAssay data set” (2004).
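Test compounds were applied to cells in 96-well plates for 48 hours at 5 doses. GI50: concentration for 50% inhibition of growth.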 Active and inactive are the calls of the source. No stated cut-off is given here; in the data, active = GI50 up to about 1.1 µM and inactive = higher.

Tests used:
Experiment in all cases: DTP human tumour cell line panel, 48 h
[1] = test system: SNB-19
[2] = test system: KM12
[3] = test system: IGROV-1
[4] = test system: SF-539
[5] = test system: DLD-1
[6] = test system: HOP-62
[7] = test system: RPMI-8226
[8] = test system: SF-268
[9] = test system: SK-OV-3
[10] = test system: SK-MEL-2
[11] = test system: COLO 205
[12] = test system: HT-29
[13] = test system: MOLT-4
[14] = test system: OVCAR-4
[15] = test system: SK-MEL-28
[16] = test system: NCI-H23
[17] = test system: K562
[18] = test system: OVCAR-8
[19] = test system: UO-31
[20] = test system: UACC-62

Measured: GI50

C=CC1(NC(=O)c2ccccc2)CCC(C(C)(C)C)CC1 (configuration not stated)
inactive: [1] 30.1 µM | [2] 35.2 µM | [3] 37.6 µM | [4] 44.3 µM | [5] 36.6 µM | [6] 35.8 µM | [7] 20.9 µM | [8] 43.2 µM | [9] 80.7 µM | [10] 25.2 µM | [11] 21.7 µM | [12] 23.9 µM | [13] 10.6 µM | [14] 27.7 µM | [15] 42.6 µM | [16] 32 µM | [17] 30.8 µM | [18] 49.7 µM | [19] 22 µM | [20] 26.6 µM

Cc1ccccc1NC(=O)C(=O)C(C1OC(=O)c2ccccc21)[N+](=O)[O-] (configuration not stated)
inactive: [1] > 100 µM | [2] > 100 µM | [3] > 100 µM | [4] > 100 µM | [5] > 100 µM | [6] > 100 µM | [7] > 100 µM | [8] > 100 µM | [9] > 100 µM | [10] > 100 µM | [11] > 100 µM | [12] > 100 µM | [13] > 100 µM | [14] > 100 µM | [15] > 100 µM | [16] > 100 µM | [17] > 100 µM | [18] > 100 µM | [19] > 100 µM | [20] > 100 µM

S=C(NCCCCCCNC(=S)Nc1c2ccccc2nc2ccccc12)Nc1c2ccccc2nc2ccccc12
inactive: [1] > 83 µM | [2] 10.9 µM | [3] > 81.5 µM | [4] 70.1 µM | [5] 70.1 µM | [6] > 89.3 µM | [7] 95.5 µM | [8] > 100 µM | [9] > 100 µM | [10] > 100 µM | [11] 50.5 µM | [12] 54.5 µM | [13] 32.4 µM | [14] 70 µM | [15] > 100 µM | [16] > 100 µM | [17] 51.9 µM | [18] 89.9 µM | [19] > 86.3 µM | [20] > 100 µM

O=C(O)C1CCC(=O)N1S(=O)(=O)c1ccccc1 (configuration not stated)
inactive: [1] > 100 µM | [2] > 100 µM | [3] > 100 µM | [4] > 100 µM | [5] > 100 µM | [6] > 100 µM | [7] > 100 µM | [8] > 96.2 µM | [9] > 100 µM | [10] > 100 µM | [11] > 100 µM | [12] > 100 µM | [13] > 100 µM | [14] > 100 µM | [15] > 100 µM | [16] > 100 µM | [17] > 100 µM | [18] > 100 µM | [19] > 100 µM | [20] > 100 µM

O=c1oc2cc(O)ccc2c2oc3cc(O)ccc3c12 [COUMESTROL]
inactive: [1] 47.6 µM | [2] 111 µM | [3] 79.8 µM | [4] 56.6 µM | [5] 62.5 µM | [6] 16 µM | [7] 45.8 µM | [8] 53.7 µM | [9] 42.1 µM | [10] > 125 µM | [11] 26 µM | [12] 49 µM | [13] 13.8 µM | [14] 83.9 µM | [15] > 125 µM | [16] 58.5 µM | [17] 74 µM | [18] 70 µM | [19] 48.3 µM | [20] 71.6 µM

CSCSCC(N)CO.Cc1[nH]c(=O)[nH]c(=O)c1/C=C/C(=O)O
inactive: [1] > 625 µM | [2] > 625 µM | [3] > 625 µM | [4] > 625 µM | [5] > 625 µM | [6] > 625 µM | [7] > 625 µM | [8] > 625 µM | [9] > 625 µM | [10] > 625 µM | [11] > 625 µM | [12] > 625 µM | [13] 590 µM | [14] > 625 µM | [15] > 625 µM | [16] > 625 µM | [17] > 625 µM | [18] 492 µM | [19] > 625 µM | [20] > 625 µM

COc1ccccc1-c1cc(O)c2c(C)ccnc2n1
inactive: [1] 26.3 µM | [2] 27.7 µM | [3] > 100 µM | [4] 30.8 µM | [6] 30.1 µM | [7] 59.8 µM | [8] 45.5 µM | [9] 23 µM | [10] 26.7 µM | [11] 19.5 µM | [12] 33.1 µM | [13] 31.7 µM | [14] 46.2 µM | [15] 84.3 µM | [16] 29.9 µM | [17] 14.2 µM | [18] 43.6 µM | [19] 33 µM | [20] 42.9 µM

O=C1OCc2cccc3c2-c2c1cccc2C(=O)OC3
inactive: [1] > 100 µM | [2] > 100 µM | [3] > 100 µM | [4] > 100 µM | [5] > 100 µM | [6] > 100 µM | [7] > 100 µM | [8] > 100 µM | [9] > 100 µM | [10] > 100 µM | [11] > 100 µM | [12] > 100 µM | [13] > 100 µM | [14] > 100 µM | [15] > 100 µM | [16] > 100 µM | [17] > 100 µM | [18] > 100 µM | [19] > 100 µM | [20] > 100 µM

COC(=O)N1CC2C3C4CC(C(c5ccccc5)=C4c4ccccc4)C3C21 (configuration not stated)
inactive: [1] 21.1 µM | [2] 14.6 µM | [3] 17.5 µM | [4] 13.8 µM | [6] 19.3 µM | [7] 8.59 µM | [8] 16.3 µM | [9] 20 µM | [10] 19.8 µM | [11] 23.1 µM | [12] 17.1 µM | [13] 12.5 µM | [14] 13.1 µM | [15] 19.9 µM | [16] 20.9 µM | [17] 6.04 µM | [18] 17.8 µM | [19] 12.8 µM | [20] 13.2 µM

BrC1=CN2C[n+]3cc(Br)c4ccccc4c3N=C2c2ccccc21
inactive: [1] 6.67 µM | [2] 3.65 µM | [3] 7.05 µM | [4] 11.7 µM | [6] 1.4 µM | [7] 10.8 µM | [8] 8.55 µM | [9] 22 µM | [10] 7.57 µM | [11] 10.3 µM | [12] 11.8 µM | [13] 11 µM | [14] 7.76 µM | [15] 2.26 µM | [16] 21.1 µM | [17] 6.34 µM | [18] 16.7 µM | [19] 34.9 µM | [20] 5.58 µM

Cc1ccc(OP2(=O)Oc3ccc4ccccc4c3CN2c2ccc(Cl)cc2)cc1C (configuration not stated)
inactive: [1] > 100 µM | [2] > 100 µM | [3] > 100 µM | [4] > 100 µM | [5] > 100 µM | [6] > 100 µM | [7] > 100 µM | [8] > 100 µM | [9] > 100 µM | [10] > 100 µM | [11] > 100 µM | [12] > 100 µM | [13] > 100 µM | [14] > 100 µM | [15] > 100 µM | [16] > 100 µM | [17] > 100 µM | [18] > 100 µM | [19] > 100 µM | [20] > 100 µM

O=[N+]([O-])c1cnccc1-n1nnc2ccccc21
inactive: [1] 30.6 µM | [2] 17.2 µM | [3] 13.9 µM | [4] 20.5 µM | [5] 20.2 µM | [6] 25.1 µM | [7] 32.9 µM | [8] 18.8 µM | [9] 23.3 µM | [10] 16.5 µM | [11] 17.9 µM | [12] 28.3 µM | [13] > 48 µM | [14] 15.3 µM | [15] 19.9 µM | [16] 18.2 µM | [17] 20.7 µM | [18] 17.7 µM | [19] 19.4 µM | [20] 13.8 µM
